Experimental data as given in patent US20250326739A1, “CD38 MODULATORS AND USES THEREOF” (Aeovian Pharmaceuticals, Inc., priority 2022, published 2025).
Counter-ions that a name gives are not always drawn.

Key:
human CD38 = human CD38 (Homo sapiens (Human), UniProt P28907); experiment: NAD+ cyclase activity assay with human recombinant CD38 protein; type: biochemical; details: 1.9 nM human CD38, 15.8 μM e-NAD substrate, fluorescence read-out
Method: (§1) Example 5: NAD^+ Cydase Activity Assay with Human or Mouse Recombinant CD38 Protein
(§2) The following assay was used to determine the ability of compounds of the invention to inhibit the hydrolysis of NAD^+ by the human or mouse enzyme, CD38.
(§3) Reaction buffer: 40 mM HEPES/NaOH pH 7.5, 250 mM sucrose, 0.01% Tween
(§4) Final concentrations: 0.6 nM mouse CD38 (4947-AC, Bio-Techne GmbH) 1.9 nM human CD38 (AVI2404, Bio-Techne GmbH)
(§5) Substrate: 15.8 μM Nicotinamide 1,N6-ethenoadenine dinucleotide (E-NAD)
(§6) Read-out: Fluorescence intensity (extinction 300 nm/emission 410 nm)
(§7) Required reaction buffer, required CD38 concentration in reaction buffer and required e-NAD concentration in reaction buffer were prepared. Thereafter, 8 μL of CD38 in reaction buffer were added to High Control and compound concentration wells in 384 well plate (Corning #4514, 384 well, nonbinding surface, low volume, round bottom) and 8 μL of reaction buffer to Low Control. Compound dilutions were transferred via pintool technology that transfers 42.5 nL compound dilutions (12-point dose-response with factor three dilutions in 100% DMSO) well-to-well. Plate was subsequently shaken for 15 s at 1450 rpm and sealed for incubation for 30 min at room temperature. Thereafter, 2 μL of e-NAD in reaction buffer were added with Integra Voyager. After shaking for 15 s at 1450 rpm, plate was sealed, and assay signal was measured continuously with PHERAstar® fluorescence intensity module (extinction 300 nm/emission 410 nm).
(§8) Dose-response curves were constructed using twelve-point factor three dilutions in triplicates per plate. High control (full enzyme activity) was set to assay signal of CD38 and e-NAD in presence of vehicle (DMSO) and Low control (full enzyme inhibition) was set to assay signal of e-NAD and vehicle (DMSO) in absence of CD38. For data analysis, fluorescent signal of traces corresponding to each compound concentration and High and Low control was monitored over time. Each run, High Control (full enzyme activity) was fitted to Linear equation via GraphPad Prism to determine CD38 activity from the slope and determine the time interval of linear phase of reaction to account for minor fluctuations. Thereafter, slopes of all compound concentrations were determined via fitting to same linear equation (GraphPad Prism) over the same time interval as determined for High control. Percentage inhibition was calculated via normalization to High and Low Control via the equation: %−inhibition=100*(1−((Sample−Low control)/(High control−Low control))) Half maximal inhibitory concentration (IC50) values are yielded from the inflection point of the corresponding curve by fitting of resulting percentage inhibition values to standard equation (4 Parameter Logistic Model or Sigmoidal Dose-Response Model) via Excel Fit. Unless otherwise stated, fitting of curves was fixed to 100%-inhibition and unlocked for 0%-inhibition.

mouse CD38 = mouse CD38 (Mus musculus (Mouse), UniProt P56528); experiment: NAD+ cyclase activity assay with mouse recombinant CD38 protein; type: biochemical; details: 0.6 nM mouse CD38, 15.8 μM e-NAD substrate, fluorescence read-out
Method: as §1, §2, §3, §4, §5, §6, §7, §8

human CD38, sequence (P28907 whole entry): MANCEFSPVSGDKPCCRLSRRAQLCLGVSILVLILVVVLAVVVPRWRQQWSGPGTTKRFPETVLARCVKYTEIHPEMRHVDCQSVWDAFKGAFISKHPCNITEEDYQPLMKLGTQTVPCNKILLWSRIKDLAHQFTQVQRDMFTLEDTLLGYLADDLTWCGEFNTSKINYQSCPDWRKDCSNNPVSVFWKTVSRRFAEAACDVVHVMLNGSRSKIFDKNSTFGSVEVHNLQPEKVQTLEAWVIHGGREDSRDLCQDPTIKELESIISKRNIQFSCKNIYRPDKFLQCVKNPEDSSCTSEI
mouse CD38, sequence (P56528 whole entry): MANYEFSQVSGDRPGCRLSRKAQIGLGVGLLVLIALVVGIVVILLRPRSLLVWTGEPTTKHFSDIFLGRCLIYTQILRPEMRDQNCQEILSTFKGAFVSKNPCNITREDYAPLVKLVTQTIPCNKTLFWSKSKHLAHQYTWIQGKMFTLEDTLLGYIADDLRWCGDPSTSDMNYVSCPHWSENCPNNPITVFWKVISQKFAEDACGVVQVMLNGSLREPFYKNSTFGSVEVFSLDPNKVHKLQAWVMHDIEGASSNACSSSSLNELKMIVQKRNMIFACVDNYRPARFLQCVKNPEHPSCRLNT

Structure (SMILES)	IC50 (human CD38) [nM]	IC50 (mouse CD38) [nM]
CCCS(=O)(=O)N1CCC(NC(=O)c2cc(C)cc(-n3ccnc3)n2)CC1 [Compound 6A, 6-(1H-Imidazol-1-yl)-4-methyl-N-(1-(propylsulfonyl)piperidin-4-yl)picolinamide]	< 30	1 to 10
Cc1cc(C(=O)N[C@H]2CCC(C)(C)OC2)nc(-n2ccnc2)c1 [Compound 65A, (S)—N-(6,6-Dimethyltetrahydro-2H-pyran-3-yl)-6-(1H-imidazol-1-yl)-4-methylpicolinamide]	100 to 1000	1 to 10
Cc1cc(C(=O)N[C@@H]2CCN(S(C)(=O)=O)C2)nc(-n2ccnc2)c1 [Compound 53A, (R)-6-(1H-Imidazol-1-yl)-4-methyl-N-(1-(methylsulfonyl)pyrrolidin-3-yl)picolinamide]	100 to 1000	1 to 10
Cc1cc(C(=O)NC2CCS(=O)(=O)C2)nc(-n2ccnc2)c1 (stereo not shown) [Compound 23A, N-(1,1-Dioxidotetrahydrothiophen-3-yl)-6-(1H-imidazol-1-yl)-4-methylpicolinamide]	30 to 100	1 to 10
Cc1cc(C(=O)N[C@@H]2CCCN(C)C2)nc(-n2ccnc2)c1 [Compound 59A, (R)-6-(1H-Imidazol-1-yl)-4-methyl-N-(1-methylpiperidin-3-yl)picolinamide]	> 1000	10 to 100
Cc1cc(C(=O)NC2C3COCC32)nc(-n2ccnc2)c1 (stereo not shown) [Compound 31A, N-(3-Oxabicyclo[3.1.0]hexan-6-yl)-6-(1H-imidazol-1-yl)-4-methylpicolinamide]	30 to 100	1 to 10
Cc1cc(C(=O)NC2COCC(F)(F)C2)nc(-n2ccnc2)c1 (stereo in doubt) [Compound 67A, (R)—N-(5,5-Ddifluorotetrahydro-2H-pyran-3-yl)-6-(1H-imidazol-1-yl)-4-methylpicolinamide]	100 to 1000	1 to 10
Cc1cc(C(=O)NC2CCOC(C)C2)nc(-n2ccnc2)c1 (stereo not shown) [Compound 30A, 6-(1H-Imidazol-1-yl)-4-methyl-N-(2-methyltetrahydro-2H-pyran-4-yl)picolinamide]	30 to 100	1 to 10
Cc1cc(C(=O)NC2CCN(S(=O)(=O)C3COC3)CC2)nc(-n2ccnc2)c1 [Compound 87A, 6-(1H-Imidazol-1-yl)-4-methyl-N-(1-(oxetan-3-ylsulfonyl)piperidin-4-yl)picolinamide]	< 30	1 to 10
CS(=O)(=O)N1CCC(NC(=O)c2cccc(-n3ccnc3)n2)CC1 [Compound 16A, 6-(1H-Imidazol-1-yl)-N-(1-(methylsulfonyl)piperidin-4-yl)picolinamide]	30 to 100	1 to 10
Cc1cc(C(=O)N[C@H]2CCOC2)nc(-n2ccnc2)c1 [Compound 38A, (S)-6-(1H-Imidazol-1-yl)-4-methyl-N-(tetrahydrofuran-3-yl)picolinamide]	100 to 1000	1 to 10
CS(=O)(=O)N1CCC(NC(=O)c2cc(C(F)(F)F)nc(-n3ccnc3)n2)CC1 [Compound 75A, 2-(1H-Imidazol-1-yl)-N-(1-(methylsulfonyl)piperidin-4-yl)-6-(trifluoromethyl)pyrimidine-4-carboxamide]	30 to 100	1 to 10
O=C(N[C@@H]1CCCOC1)c1cc(C(F)(F)F)cc(-n2ccnc2)n1 [Compound 62A, (R)-6-(1H-imidazol-1-yl)-N-(tetrahydro-2H-pyran-3-yl)-4-(trifluoromethyl)picolinamide]	< 30	1 to 10
COCCS(=O)(=O)N1CCC(NC(=O)c2cc(C)cc(-n3ccnc3)n2)CC1 [Compound 4A, 6-(1H-Imidazol-1-yl)-N-(1-((2-methoxyethyl)sulfonyl)piperidin-4-yl)-4-methylpicolinamide]	< 30	1 to 10
Cc1cc(C(=O)NC2CCCCCC2)nc(-n2ccnc2)c1 [Compound 34A, N-Cycloheptyl-6-(1H-imidazol-1-yl)-4-methylpicolinamide]	< 30	1 to 10
Cc1cc(C(=O)NC2CCNCC2)nc(-n2ccnc2)c1 [Compound 11A, 6-(1H-Imidazol-1-yl)-4-methyl-N-(piperidin-4-yl)picolinamide]	> 1000	1 to 10

Structure (SMILES)	IC50 (human CD38) [nM]	IC50 (mouse CD38) [nM]
Cc1cc(C(=O)N[C@@H]2CCCOC2)nc(-n2ccnc2)c1 [Compound 44A, (R)-6-(1H-Imidazol-1-yl)-4-methyl-N-(tetrahydro-2H-pyran-3-yl)picolinamide]	< 30	< 1
Cc1cc(C(=O)NC2CCC(F)(F)C2)nc(-n2ccnc2)c1 (stereo not shown) [Compound 35A, N-(3,3-Difluorocyclopentyl)-6-(1H-imidazol-1-yl)-4-methylpicolinamide]	< 30	1 to 10
CC(=O)N1CCC(NC(=O)c2cc(C)cc(-n3ccnc3)n2)CC1 [Compound 10A, N-(1-Acetylpiperidin-4-yl)-6-(1H-imidazol-1-yl)-4-methylpicolinamide]	30 to 100	1 to 10
Cc1cc(C(=O)N[C@@H]2CCN(C(=O)OC(C)(C)C)C2)nc(-n2ccnc2)c1 [Compound 43A, tert-Butyl (R)-3-(6-(1H-imidazol-1-yl)-4-methylpicolinamido)pyrrolidine-1-carboxylate]	< 30	1 to 10
Cc1cc(C(=O)NC2CCOCC2)nc(-n2ccnc2)c1 [Compound 32A, 6-(1H-Imidazol-1-yl)-4-methyl-N-(tetrahydro-2H-pyran-4-yl)picolinamide]	30 to 100	1 to 10
Cc1cc(C(=O)NC2CC3CCC(C2)O3)nc(-n2ccnc2)c1 (stereo not shown) [Compound 28A, N-(8-Oxabicyclo[3.2.1]octan-3-yl)-6-(1H-imidazol-1-yl)-4-methylpicolinamide]	100 to 1000	1 to 10
Cc1cc(C(=O)NC2CCN(S(=O)(=O)N(C)C)CC2)nc(-n2ccnc2)c1 [Compound 18A, N-(1-(N,N-Dimethylsulfamoyl)piperidin-4-yl)-6-(1H-imidazol-1-yl)-4-methylpicolinamide]	< 30	1 to 10
Cc1cc(C(=O)N[C@H]2CCCOC2)nc(-n2ccnc2)c1 [Compound 45A, (S)-6-(1H-Imidazol-1-yl)-4-methyl-N-(tetrahydro-2H-pyran-3-yl)picolinamide]	100 to 1000	1 to 10
CCS(=O)(=O)N1CCC(NC(=O)c2cc(C)cc(-n3ccnc3)n2)CC1 [Compound 2A, N-(1-(Ethylsulfonyl)piperidin-4-yl)-6-(1H-imidazol-1-yl)-4-methylpicolinamide]	< 30	1 to 10
Cc1cc(C(=O)N[C@@H]2CCNC2)nc(-n2ccnc2)c1 [Compound 52A, (R)-6-(1H-Imidazol-1-yl)-4-methyl-N-(pyrrolidin-3-yl)picolinamide dihydrochloride]	> 1000	> 100
Cc1cc(C(=O)N[C@@H]2CCC(C)(C)OC2)nc(-n2ccnc2)c1 [Compound 64A, (R)—N-(6,6-Dimethyltetrahydro-2H-pyran-3-yl)-6-(1H-imidazol-1-yl)-4-methylpicolinamide]	30 to 100	1 to 10
O=C(N[C@@H]1CCS(=O)(=O)C1)c1ccnc(-n2ccnc2)n1 [Compound 74A, (R)—N-(1,1-Dioxidotetrahydrothiophen-3-yl)-2-(1H-imidazol-1-yl)pyrimidine-4-carboxamide]	< 30	1 to 10
Cc1cc(C(=O)NC2CCCOC2)nc(-n2ccnc2)c1 (stereo not shown) [Compound 9A, 6-(1H-Imidazol-1-yl)-4-methyl-N-(tetrahydro-2H-pyran-3-yl)picolinamide]	< 30	1 to 10
Cc1cc(C(=O)N[C@@H]2COCCC2(F)F)nc(-n2ccnc2)c1 [Compound 71A, (R)—N-(4,4-Difluorotetrahydro-2H-pyran-3-yl)-6-(1H-imidazol-1-yl)-4-methylpicolinamide]	30 to 100	< 1
Cc1ccc(-n2ccnc2)nc1C(=O)NC1CCN(S(C)(=O)=O)CC1 [Compound 79A, 6-(1H-Imidazol-1-yl)-3-methyl-N-(1-(methylsulfonyl)piperidin-4-yl)picolinamide]	100 to 1000	10 to 100
Cc1cc(C(=O)NC2CN(S(C)(=O)=O)C2)nc(-n2ccnc2)c1 [Compound 7A, 6-(1H-Imidazol-1-yl)-4-methyl-N-(1-(methylsulfonyl)azetidin-3-yl)picolinamide]	30 to 100	1 to 10
